Measured values reported in US9486447B2, “Compositions and methods for controlling neuronal excitation” (The General Hospital Corporation, priority 2011, dated 2016).
Several values for one entry are separate records, joined by “and”; a condition that tells them apart may be missing. Equal entries are not always repeated.

Legend:
[1] = molecular target: Alpha2B (Homo sapiens, UniProt P18089); test: NIMH PDSP binding assay; conditions: primary screening, mean of N = 4 determinations
Source text: (§1) To determine if optovin's mechanism of action could be predicted via behavioral profiling^30,32, optovin's behavioral profile was compared to the behavioral profiles of 700 annotated neuroactive compounds tested in triplicate. These compounds include ligands targeting the adrenergic, serotonergic, histaminergic, dopaminergic, cholinergic and glutamatergic pathways. […] To gain insight into optovin's mechanism of action, optovin and two active optovin analogs were profiled using the National Institutes of Mental Health Psychoactive Drug Screening Program (NIMH PDSP) to determine their activities against a panel of human and rodent CNS receptors, channels and transporters.
(§2) Activity determinations were generously provided by the National Institute of Mental Health's Psychoactive Drug Screening Program, Contract # HHSN-271-2008-00025-C(NIMH PDSP). Complete assay details are found on-line at: http://pdsp.med.unc.edu/UNC-CH %20Protocol %20Book.pdf

[2] = molecular target: 5-HT2C (Homo sapiens, UniProt P28335); test: NIMH PDSP binding assay; conditions: primary screening, mean of N = 4 determinations
Source text: as §1, §2

[3] = molecular target: T1, D4 (Homo sapiens, UniProt P21917); test: NIMH PDSP binding assay; conditions: primary screening, mean of N = 4 determinations
T1 construct: NIMH PDSP
T1 sequence (P21917 whole entry): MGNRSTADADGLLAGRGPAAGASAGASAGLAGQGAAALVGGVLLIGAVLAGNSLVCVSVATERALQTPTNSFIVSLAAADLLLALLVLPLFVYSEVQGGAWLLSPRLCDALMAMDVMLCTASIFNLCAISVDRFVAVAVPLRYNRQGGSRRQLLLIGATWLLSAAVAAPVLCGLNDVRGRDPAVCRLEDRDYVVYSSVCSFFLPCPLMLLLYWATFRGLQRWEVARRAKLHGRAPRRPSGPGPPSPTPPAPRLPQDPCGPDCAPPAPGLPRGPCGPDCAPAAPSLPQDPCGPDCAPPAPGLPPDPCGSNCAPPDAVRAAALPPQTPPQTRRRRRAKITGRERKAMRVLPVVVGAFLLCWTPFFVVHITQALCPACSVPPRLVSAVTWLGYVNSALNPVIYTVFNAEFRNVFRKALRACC
Source text: as §1, §2

[4] = molecular target: T2, M1 (Homo sapiens, UniProt P11229); test: NIMH PDSP binding assay; conditions: primary screening, mean of N = 4 determinations
T2 construct: NIMH PDSP
T2 sequence (P11229 whole entry): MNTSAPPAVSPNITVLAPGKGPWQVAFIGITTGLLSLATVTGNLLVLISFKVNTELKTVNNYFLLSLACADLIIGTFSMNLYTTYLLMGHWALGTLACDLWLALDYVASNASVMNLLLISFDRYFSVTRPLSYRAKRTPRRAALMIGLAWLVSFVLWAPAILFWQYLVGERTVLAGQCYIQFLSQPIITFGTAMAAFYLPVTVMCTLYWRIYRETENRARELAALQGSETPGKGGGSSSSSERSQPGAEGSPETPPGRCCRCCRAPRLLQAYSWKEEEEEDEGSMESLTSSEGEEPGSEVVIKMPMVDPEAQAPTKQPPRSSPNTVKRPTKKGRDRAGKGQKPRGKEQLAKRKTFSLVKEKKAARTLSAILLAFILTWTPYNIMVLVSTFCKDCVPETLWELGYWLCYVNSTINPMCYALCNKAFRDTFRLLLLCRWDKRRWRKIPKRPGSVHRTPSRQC
Source text: as §1, §2

[5] = molecular target: A4B4 (Rattus norvegicus, UniProt P09483+P12392); test: NIMH PDSP binding assay; conditions: primary screening, mean of N = 4 determinations
Source text: as §1, §2

[6] = tested on: Sigma 1; test: NIMH PDSP binding assay; conditions: primary screening, mean of N = 4 determinations
Source text: as §1, §2

[7] = molecular target: 5-HT7 (Homo sapiens, UniProt P34969); test: NIMH PDSP binding assay; conditions: primary screening, mean of N = 4 determinations
Source text: as §1, §2

[8] = molecular target: 5-HT1A (Homo sapiens, UniProt P08908); test: NIMH PDSP binding assay; conditions: primary screening, mean of N = 4 determinations
5-HT1A, sequence (P08908 whole entry, species assumed): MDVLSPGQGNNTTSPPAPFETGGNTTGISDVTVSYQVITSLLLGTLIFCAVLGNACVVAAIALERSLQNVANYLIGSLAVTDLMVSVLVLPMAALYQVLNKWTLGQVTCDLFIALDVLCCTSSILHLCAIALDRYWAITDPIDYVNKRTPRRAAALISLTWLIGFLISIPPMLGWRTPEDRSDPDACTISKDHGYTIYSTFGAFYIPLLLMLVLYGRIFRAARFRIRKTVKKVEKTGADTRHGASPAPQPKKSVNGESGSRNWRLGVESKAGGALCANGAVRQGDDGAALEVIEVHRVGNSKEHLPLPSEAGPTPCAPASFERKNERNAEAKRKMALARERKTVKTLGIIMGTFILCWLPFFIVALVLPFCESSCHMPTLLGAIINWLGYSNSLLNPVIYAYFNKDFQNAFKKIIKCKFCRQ
Source text: as §1, §2

[9] = molecular target: A2B4 (Rattus norvegicus, UniProt P12389+P12392); test: NIMH PDSP binding assay; conditions: primary screening, mean of N = 4 determinations
A2B4, sequence (P12389 28-511): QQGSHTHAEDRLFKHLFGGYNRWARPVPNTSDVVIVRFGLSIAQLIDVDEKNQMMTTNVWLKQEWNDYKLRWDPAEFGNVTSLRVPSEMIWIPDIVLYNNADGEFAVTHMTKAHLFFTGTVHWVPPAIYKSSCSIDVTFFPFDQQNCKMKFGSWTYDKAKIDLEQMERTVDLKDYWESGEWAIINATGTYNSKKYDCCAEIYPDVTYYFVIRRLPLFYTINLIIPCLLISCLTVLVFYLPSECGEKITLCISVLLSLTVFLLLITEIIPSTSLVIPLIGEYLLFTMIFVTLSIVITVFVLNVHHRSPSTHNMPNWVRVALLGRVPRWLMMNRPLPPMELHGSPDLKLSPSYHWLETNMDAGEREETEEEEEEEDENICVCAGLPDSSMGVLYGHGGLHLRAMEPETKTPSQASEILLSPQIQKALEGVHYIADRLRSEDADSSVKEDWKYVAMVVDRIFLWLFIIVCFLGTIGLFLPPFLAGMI
A2B4, sequence (P12392 21-495): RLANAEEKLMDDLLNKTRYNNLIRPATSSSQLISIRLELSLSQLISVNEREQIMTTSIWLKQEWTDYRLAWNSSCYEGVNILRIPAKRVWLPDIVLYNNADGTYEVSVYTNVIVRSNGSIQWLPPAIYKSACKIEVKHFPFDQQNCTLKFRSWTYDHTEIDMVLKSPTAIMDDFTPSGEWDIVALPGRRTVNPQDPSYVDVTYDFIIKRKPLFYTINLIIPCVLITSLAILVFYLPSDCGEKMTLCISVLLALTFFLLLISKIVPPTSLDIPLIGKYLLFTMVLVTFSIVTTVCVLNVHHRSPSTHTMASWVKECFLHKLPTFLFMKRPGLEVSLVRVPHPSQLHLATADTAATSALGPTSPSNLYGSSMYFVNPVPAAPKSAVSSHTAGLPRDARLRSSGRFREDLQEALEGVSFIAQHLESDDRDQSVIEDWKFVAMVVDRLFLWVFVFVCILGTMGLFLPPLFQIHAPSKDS
Source text: as §1, §2

[10] = molecular target: A2B2 (Rattus norvegicus, UniProt P12389+P12390); test: NIMH PDSP binding assay; conditions: primary screening, mean of N = 4 determinations
A2B2, sequence (P12389 28-511): as the sequence (P12389 28-511) above
A2B2, sequence (P12390 25-500): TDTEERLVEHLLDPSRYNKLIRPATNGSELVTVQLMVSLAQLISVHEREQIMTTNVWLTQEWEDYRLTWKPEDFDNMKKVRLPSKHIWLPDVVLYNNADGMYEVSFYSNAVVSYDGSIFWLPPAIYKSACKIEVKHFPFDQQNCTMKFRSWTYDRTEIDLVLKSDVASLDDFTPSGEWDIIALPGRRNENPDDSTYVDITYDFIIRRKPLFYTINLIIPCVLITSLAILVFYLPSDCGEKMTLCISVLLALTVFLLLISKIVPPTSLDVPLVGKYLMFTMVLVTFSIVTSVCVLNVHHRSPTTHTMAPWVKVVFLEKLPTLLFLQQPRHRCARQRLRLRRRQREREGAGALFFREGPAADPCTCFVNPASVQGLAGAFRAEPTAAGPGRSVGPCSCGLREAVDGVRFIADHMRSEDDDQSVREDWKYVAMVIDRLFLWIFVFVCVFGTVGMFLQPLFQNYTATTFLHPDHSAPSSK
Source text: as §1, §2

[11] = molecular target: Sigma 2 (Rattus norvegicus, UniProt Q5U3Y7); test: NIMH PDSP binding assay; conditions: primary screening, mean of N = 4 determinations
Source text: as §1, §2

[12] = molecular target: 5-HT3 (Homo sapiens, UniProt P46098); test: NIMH PDSP binding assay; conditions: primary screening, mean of N = 4 determinations
5-HT3, sequence (P46098 24-478, species assumed): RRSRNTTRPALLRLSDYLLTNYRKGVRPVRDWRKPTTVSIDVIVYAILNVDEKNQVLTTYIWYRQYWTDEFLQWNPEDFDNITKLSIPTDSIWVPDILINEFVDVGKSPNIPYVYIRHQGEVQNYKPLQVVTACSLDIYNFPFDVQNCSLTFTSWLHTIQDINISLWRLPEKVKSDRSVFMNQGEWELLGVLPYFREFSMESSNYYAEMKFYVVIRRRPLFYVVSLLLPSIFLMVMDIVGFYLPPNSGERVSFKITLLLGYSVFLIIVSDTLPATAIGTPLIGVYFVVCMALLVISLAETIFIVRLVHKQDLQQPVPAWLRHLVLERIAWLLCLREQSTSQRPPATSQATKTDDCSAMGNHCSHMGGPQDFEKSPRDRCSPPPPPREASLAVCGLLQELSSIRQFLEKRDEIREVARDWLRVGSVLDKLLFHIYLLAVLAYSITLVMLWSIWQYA
Source text: as §1, §2

[13] = molecular target: T3, D2 (Homo sapiens, UniProt P14416); test: NIMH PDSP binding assay; conditions: primary screening, mean of N = 4 determinations
T3 construct: NIMH PDSP
T3 sequence (P14416 whole entry): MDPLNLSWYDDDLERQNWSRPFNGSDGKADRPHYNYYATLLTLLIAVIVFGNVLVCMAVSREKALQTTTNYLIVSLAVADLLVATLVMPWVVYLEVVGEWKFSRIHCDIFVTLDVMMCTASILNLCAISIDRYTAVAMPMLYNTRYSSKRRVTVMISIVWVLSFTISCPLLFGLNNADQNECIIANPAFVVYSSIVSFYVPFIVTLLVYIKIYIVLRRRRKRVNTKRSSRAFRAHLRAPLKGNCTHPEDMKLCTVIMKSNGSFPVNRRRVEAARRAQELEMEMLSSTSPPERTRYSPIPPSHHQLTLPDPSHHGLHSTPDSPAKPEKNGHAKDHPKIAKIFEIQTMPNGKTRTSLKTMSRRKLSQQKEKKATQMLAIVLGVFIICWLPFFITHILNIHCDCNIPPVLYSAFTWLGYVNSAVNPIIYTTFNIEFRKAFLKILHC
Source text: as §1, §2

[14] = molecular target: 5-HT2A (Homo sapiens, UniProt P28223); test: NIMH PDSP binding assay; conditions: primary screening, mean of N = 4 determinations
Source text: as §1, §2

[15] = molecular target: T4, D3 (Homo sapiens, UniProt P35462); test: NIMH PDSP binding assay; conditions: primary screening, mean of N = 4 determinations
T4 construct: NIMH PDSP
T4 sequence (P35462 whole entry): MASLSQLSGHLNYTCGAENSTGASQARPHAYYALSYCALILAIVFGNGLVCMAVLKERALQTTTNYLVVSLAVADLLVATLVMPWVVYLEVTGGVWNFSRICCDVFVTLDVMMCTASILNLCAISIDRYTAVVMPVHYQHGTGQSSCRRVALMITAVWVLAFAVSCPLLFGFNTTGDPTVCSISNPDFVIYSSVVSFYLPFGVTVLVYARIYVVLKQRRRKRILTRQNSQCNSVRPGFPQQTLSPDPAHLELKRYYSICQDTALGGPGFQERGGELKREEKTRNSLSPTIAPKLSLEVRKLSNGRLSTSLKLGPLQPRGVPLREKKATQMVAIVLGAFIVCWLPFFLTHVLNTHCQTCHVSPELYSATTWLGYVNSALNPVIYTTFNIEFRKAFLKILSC
Source text: as §1, §2

[16] = molecular target: 5-ht1e (Homo sapiens, UniProt P28566); test: NIMH PDSP binding assay; conditions: primary screening, mean of N = 4 determinations
Source text: as §1, §2

[17] = molecular target: T5, MOR (Homo sapiens, UniProt P35372); test: NIMH PDSP binding assay; conditions: primary screening, mean of N = 4 determinations
T5 construct: NIMH PDSP
Source text: as §1, §2

[18] = molecular target: T6, DOR (Homo sapiens, UniProt P41143); test: NIMH PDSP binding assay; conditions: primary screening, mean of N = 4 determinations
T6 construct: NIMH PDSP
Source text: as §1, §2

[19] = molecular target: T7, M2 (Homo sapiens, UniProt P08172); test: NIMH PDSP binding assay; conditions: primary screening, mean of N = 4 determinations
T7 construct: NIMH PDSP
Source text: as §1, §2

[20] = molecular target: T8, Beta2 (Homo sapiens, UniProt P07550); test: NIMH PDSP binding assay; conditions: primary screening, mean of N = 4 determinations
T8 construct: NIMH PDSP
Source text: as §1, §2

[21] = molecular target: T9, D5 (Homo sapiens, UniProt P21918); test: NIMH PDSP binding assay; conditions: primary screening, mean of N = 4 determinations
T9 construct: NIMH PDSP
Source text: as §1, §2

[22] = molecular target: Alpha1B (Homo sapiens, UniProt P35368); test: NIMH PDSP binding assay; conditions: primary screening, mean of N = 4 determinations
Source text: as §1, §2

[23] = molecular target: T10, NET (Homo sapiens, UniProt P23975); test: NIMH PDSP binding assay; conditions: primary screening, mean of N = 4 determinations
T10 construct: NIMH PDSP
Source text: as §1, §2

[24] = molecular target: T11, Beta3 (Homo sapiens, UniProt P13945); test: NIMH PDSP binding assay; conditions: primary screening, mean of N = 4 determinations
T11 construct: NIMH PDSP
T11 sequence (P13945 whole entry): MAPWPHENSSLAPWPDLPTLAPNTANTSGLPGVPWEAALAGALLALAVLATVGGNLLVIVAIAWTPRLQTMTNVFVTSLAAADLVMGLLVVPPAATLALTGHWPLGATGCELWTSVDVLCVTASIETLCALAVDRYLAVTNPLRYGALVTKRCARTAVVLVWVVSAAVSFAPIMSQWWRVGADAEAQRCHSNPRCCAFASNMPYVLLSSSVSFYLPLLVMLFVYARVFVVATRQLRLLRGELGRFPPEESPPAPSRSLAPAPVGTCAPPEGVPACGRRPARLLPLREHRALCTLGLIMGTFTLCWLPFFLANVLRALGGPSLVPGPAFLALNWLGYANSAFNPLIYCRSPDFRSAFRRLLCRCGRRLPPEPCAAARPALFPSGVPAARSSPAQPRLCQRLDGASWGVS
Source text: as §1, §2

[25] = molecular target: 5-HT6 (Homo sapiens, UniProt P50406); test: NIMH PDSP binding assay; conditions: primary screening, mean of N = 4 determinations
Source text: as §1, §2

[26] = molecular target: Alpha2C (Homo sapiens, UniProt P18825); test: NIMH PDSP binding assay; conditions: primary screening, mean of N = 4 determinations
Alpha2C, sequence (P18825 whole entry): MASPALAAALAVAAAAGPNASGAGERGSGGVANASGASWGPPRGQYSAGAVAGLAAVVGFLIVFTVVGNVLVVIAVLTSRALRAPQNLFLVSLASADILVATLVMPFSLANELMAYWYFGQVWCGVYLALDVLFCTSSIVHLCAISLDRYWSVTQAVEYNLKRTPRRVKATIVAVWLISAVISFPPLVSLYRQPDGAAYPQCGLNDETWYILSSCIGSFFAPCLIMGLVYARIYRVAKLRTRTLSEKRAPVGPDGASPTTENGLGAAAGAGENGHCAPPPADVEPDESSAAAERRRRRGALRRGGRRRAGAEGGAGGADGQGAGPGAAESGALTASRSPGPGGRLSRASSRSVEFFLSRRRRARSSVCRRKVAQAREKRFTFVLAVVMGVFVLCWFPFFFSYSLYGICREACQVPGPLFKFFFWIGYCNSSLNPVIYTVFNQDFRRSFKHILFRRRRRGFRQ
Source text: as §1, §2

[27] = molecular target: PBR (Rattus norvegicus, UniProt P16257); test: NIMH PDSP binding assay; conditions: primary screening, mean of N = 4 determinations
Source text: as §1, §2

[28] = molecular target: T12, H2 (Homo sapiens, UniProt P25021); test: NIMH PDSP binding assay; conditions: primary screening, mean of N = 4 determinations
T12 construct: NIMH PDSP
Source text: as §1, §2

[29] = tested on: dorsal root ganglia (DRG) sensory neurons; test: Calcium imaging of DRG sensory neurons; type: cell-based, mouse
Protocol: To determine if optovin acts on sensory neurons, the activity of treated and untreated dorsal root ganglia (DRG) sensory neurons isolated from wild type mice were compared. […] TRPA1 channels play important roles in detecting chemical, thermal, and mechanical stimuli in a variety of organisms^34,35.
C57Bl/6 male mice (3-4 weeks old) were decapitated and DRG were dissected into 4° C. Hank's Balanced Salt Solution (HBSS; Gibco), then neurons were dissociated using collagenase (1 mg/mL; Worthington) and dispase (5 mg/mL; Gibco) dissolved in HBSS. Neurons were plated in Neurobasal-A medium (Invitrogen), supplemented with B-27 Supplement (Gibco), L-glutamine (Gibco), and penicillin-streptomycin (Gibco). The neurons were plated onto coverslips coated with 0.1 mg/mL poly-D-lysine (Sigma) and 5 μg/mL laminin (Sigma). After 24 h, neurons were washed with assay buffer (HBSS, supplemented with 9 mM HEPES, 11 mM D-glucose, 0.1% fatty-acid free BSA, pH 7.3) and incubated for 1 h with 2 μM Fura2-AM (Invitrogen) with 0.2% pluronic (Invitrogen) in assay buffer in the dark at room temperature. The neurons were then washed with assay buffer and allowed to equilibrate at room temperature for 30 min prior to imaging. After a 120 s baseline perfusion of assay buffer containing 3.3% DMSO, 100 μM optovin dissolved in the DMSO-assay buffer solution, or the DMSO-assay buffer solution alone as a control, was perfused onto the neurons for a period of 1 min. Fura-2 is activated with UV-light, and the process of imaging Fura-2 was enough to activate the optovin. […] Following this one-minute period, cells were perfused with DMSO-assay buffer to remove the agonist, which was followed by addition of 100 μM mustard oil (in DMSO-assay buffer) to determine the total number of TrpA1-expressing neurons present. Images were acquired on a Nikon Eclipse Ti microscope (Nikon, Melville, N.Y.).

## Cc1cc(/C=C2/SC(=S)NC2=O)c(C)n1-c1cccnc1 [optovin]
[1]
  Avg % inhibition (Alpha2B): 8.9%
[2]
  Avg % inhibition (5-HT2C): 7.0%
[3]
  Avg % inhibition (D4): 0.2%
[4]
  Avg % inhibition (M1): 32.9% and 16.9%
[5]
  Avg % inhibition (A4B4): −8.8%
[6]
  Avg % inhibition (Sigma 1): −13.7%
[7]
  Avg % inhibition (5-HT7): −0.8%
[8]
  Avg % inhibition (5-HT1A): 6.7%
[9]
  Avg % inhibition (A2B4): −7.8%
[10]
  Avg % inhibition (A2B2): −19.2%
[11]
  Avg % inhibition (Sigma 2): 16.0%
[12]
  Avg % inhibition (5-HT3): −1.7%
[13]
  Avg % inhibition (D2): −6.8%
[14]
  Avg % inhibition (5-HT2A): −1.1%
[15]
  Avg % inhibition (D3): 34.3%
[16]
  Avg % inhibition (5-ht1e): −21.5%
[17]
  Avg % inhibition (MOR): −0.7%
[18]
  Avg % inhibition (DOR): −7.2%
[19]
  Avg % inhibition (M2): 6.6%
[20]
  Avg % inhibition (Beta2): −3.8%
[21]
  Avg % inhibition (D5): 13.6%
[22]
  Avg % inhibition (Alpha1B): 7.2%
[23]
  Avg % inhibition (NET): −1.3%
[24]
  Avg % inhibition (Beta3): 20.2%
[25]
  Avg % inhibition (5-HT6): −16.5%
[26]
  Avg % inhibition (Alpha2C): 3.3%
[27]
  Avg % inhibition (PBR): −11.3%
[28]
  Avg % inhibition (H2): 41.1%
[29]; 100 μM optovin, illuminated (Fura-2 imaging)
  activation of DRG neurons with light: strongly activated
[29]; optovin treatment in the dark
  activation of DRG neurons in the dark: did not occur
